Experimental findings from patent publication US20150337349A1, “Microbiome Modulation Index” (SECOND GENOME, INC., priority 2013, published 2015) are described below.

Each structure is given as a SMILES string. Counter-ions that a name gives are not always drawn.

The subject of this experiment is fecal microbial communities (OTUs). Description: Microbiome Modulation Index (MMI) from 16S rRNA V4 profiling of fecal samples before and after agent administration. The experiment is classed as in vivo, c57bl/6 mice. Conditions: oral gavage daily for 5 consecutive days at Table 1 mouse dose; day 0 vs day 5 fecal samples; MMI = d/d0 relative to control mice; variability weight gi applied. The protocol: Twenty five agents were selected to span multiple indications (Table 1). For each agent, the effective dose for the mouse was determined through a comprehensive search of the literature (Table 1). Working formulations were created by suspending agents in 1× phosphate buffered saline (PBS).
A total of 156 six-week old c57bl/6 mice (78 males and 78 females) were housed in separate cages 5 days prior to agent administration. Animals were handled daily by caretakers during this acclimation period. Animals were fed a standard chow diet throughout the course of the study.
Animals were treated with agents via oral gavage daily for 5 consecutive days beginning on day 1. N=6 mice per agent; 3 male+3 female. Fecal samples were collected using the ‘clean catch’ method in which the mice were held by the tail, causing them to defecate. Feces were collected in a sterile tube and immediately frozen and stored at −80° C. Fecal samples were collected in the morning prior to agent administration on the following days: −1,0,4,5.
Frozen day 0 and day 5 fecal specimens corresponding to 15 treatment groups (PBS+(Table 3) were profiled using Second Genome's Microbiome Signature Discovery™ service (San Bruno, Calif.). DNA was isolated using the PowerSoil DNA Isolation Kit following the manufacturer's instructions (MoBio Laboratories, Carlsbad, Calif.). For V4 sequencing assay profiling, the V4 region of the 16S rRNA genes was amplified using fusion primers tailed with Illumina sequencing adapters and indexing barcodes according to a previously described technique (Caporaso, 2010, PMID: 20534432). For each sample, amplified products were concentrated, purified and quantified by electrophoresis using an Agilent 2100 Bioanalyzer, then pooled for sequencing using the MiSeq (Illumina, San Diego, Calif.) instrument.
Using the software QIIME (Kuczynski, 2012, PMID: 23184592) and custom scripts, sequences were quality filtered and de-multiplexed using exact matches to the supplied DNA barcodes. Resulting sequences were then clustered into reference OTUs (rOTUs) by uclust (Edgar, 2010, PMID: 20709691) matching each sequence against the Greengenes sequences pre-clustered at 97%, a practice commonly referred to as “closed-reference OTU picking”. The longest Illumina-generated sequence from each of OTUs thus formed was then used as the OTU representative sequence, and assigned taxonomic classification via mothur's bayesian classifier (Schloss, 2009, PMID: 19801464) trained against the Greengenes database. Taxonomic annotations at 80% bootstrapped confidence were applied. Total sequence counts per fecal sample were scaled to be identical. Seven samples (MDO5M027D0, MD10M057D0, Md12F07D0, MD01F006D5, MD06F035D5, MD13M074D5, and MD04F023D5) were excluded following sequence quality filtering and alignment due to low sequence yield. Taxa were filtered to those present in at least one of the samples.
MMIs were calculated for the PBS control and 14 of the tested drugs. To calculate the MMI of an agent, an intermediate value d was calculated for each mouse administered with the respective agent. The abundance of each OTU before treatment in that mouse was compared to the abundance of that OTU after treatment as in exemplary Equation 11: […]
where A1i represents the abundance of OTU i at time-point 1 (post-administration), where A0i represents the abundance of OTU i at time-point 0 (pre-administration) gi represents a variability weight applied to each OTU, discussed below.
Once d was calculated for each mouse, d values for each administered mouse are averaged, and the resulting d was compared to a reference level of change d0 in a control group of mice not administered the agent. The value d0 is determined on the basis of laboratory studies of untreated mice in similar conditions (e.g., a similar number of samples to the number of samples obtained from treated mice).
The MMI is then calculated as in exemplary Equation 12: […]
In turn, `CC(=O)Oc1ccccc1C(=O)O` [Acetylsiacylic_acid] had an MMI of 1.093.
With `NCCCC(O)(P(=O)(O)O)P(=O)(O)O` [Alendronate_sodium_trihydrate] the figure was 1.107; with `CC1(C)S[C@@H]2[C@H](NC(=O)[C@H](N)c3ccc(O)cc3)C(=O)N2[C@H]1C(=O)O` [Amoxycillin], 2.397.
With `CC(C)c1c(C(=O)Nc2ccccc2)c(-c2ccccc2)c(-c2ccc(F)cc2)n1CC[C@@H](O)C[C@@H](O)CC(=O)O` [Atorvastatin_calcium_salt_trihydrate] the figure was 1.278; with `CC[C@H]1OC(=O)[C@H](C)[C@@H](O[C@H]2C[C@@](C)(OC)[C@@H](O)[C@H](C)O2)[C@H](C)[C@@H](O[C@@H]2O[C@H](C)C[C@H](N(C)C)[C@H]2O)[C@](C)(O)C[C@@H](C)CN(C)[C@H](C)[C@@H](O)[C@]1(C)O` [Azithromycin], 2.202.
To `CCN(CC)CCOC(=O)C1(C2CCCCC2)CCCCC1` [Dicyloamine_hydrochloride] belongs 1.222.
In turn, `CN(C)CCOC(c1ccccc1)c1ccccc1` [Diphenhydramine_hydrochloride] showed an MMI of 1.202.
To `COc1ccc2[n-]c([S@@+]([O-])Cc3ncc(C)c(OC)c3C)nc2c1.COc1ccc2[n-]c([S@@+]([O-])Cc3ncc(C)c(OC)c3C)nc2c1.[Mg+2]` [Esomeprazole_magnesium_hydrate] belongs 1.1; to `OC(Cn1cncn1)(Cn1cncn1)c1ccc(F)cc1F` [Fluconazole], 1.003.
To `CNCCC(Oc1ccc(C(F)(F)F)cc1)c1ccccc1` (centres unmarked) [Fluoxetine_hydrochloride] belongs 1.44; to `Nc1ccc(O)c(C(=O)O)c1` [Mesalamine], 1.131; to `CN(C)C(=N)N=C(N)N` [Metformin_hydrochloride], 1.628.
To `C[C@]12C=CC(=O)C=C1CC[C@@H]1[C@@H]2[C@@H](O)C[C@@]2(C)[C@H]1CC[C@]2(O)C(=O)COC(=O)CCC(=O)[O-].[Na+]` [Prednisalone_21-hemisuccinate_sodium_salt] belongs 1.262; to `Cc1ccc(-c2nc3ccc(C)cn3c2CC(=O)N(C)C)cc1` [Zolpidem_tartrate], 1.443.
